Reference: patent publication US20240409536A1, “COMPOUNDS AND METHODS FOR MODULATING SPLICING” (REMIX THERAPEUTICS INC., priority 2021, published 2024)

Key:
HiBiT-tagged HTT protein = experiment: HiBiT protein abundance assay, HTT (K562 HiBiT knock-in cells); type: cell-based, human; details: 24 hours
In short: (§1)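 K562 cells with endogenous HiBiT knock-in tag, 10-point 3-fold dilutions (top 10 μM final, ≤0.25% DMSO), 24 h at 37 °C. Lytic Nano-Glo HiBiT luminescence, normalized to DMSO and unmodified K562 baselines; IC50 is concentration giving 50% protein abundance from four-parameter fit.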

HTT mRNA = experiment: Gene panel canonical junction qPCR assay, HTT CJ mRNA decrease; type: cell-based, human; details: Homo sapiens, canonical junction qPCR, read-out: HTT IC50 (decrease in CJ mRNA levels)
In short: (§2)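 A673 or K562 cells treated with compound; canonical exon-exon junction mRNA quantified by cDNA synthesis and RT-qPCR with junction-spanning primer/probe, normalized to GAPDH, GUSB or PPIA and DMSO (2^(−ΔΔCt)). Percent response from set ΔCt assay windows fitted to 4-parameter logistic; IC50 for CJ decrease.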

HiBiT-tagged MYB protein = experiment: HiBiT protein abundance assay, MYB (K562 HiBiT knock-in cells); type: cell-based, human; details: 24 hours
In short: as §1

SMN2 mRNA = experiment: Gene panel canonical junction qPCR assay, SMN2 CJ mRNA decrease; type: cell-based, human; details: Homo sapiens, canonical junction qPCR, read-out: SMN2 IC50 (decrease in CJ mRNA levels)
In short: as §2

Target C mRNA = experiment: Gene panel canonical junction qPCR assay, Target C CJ mRNA decrease; type: cell-based; details: Homo sapiens, canonical junction qPCR, read-out: Target C IC50 (decrease in CJ mRNA levels)
In short: as §2

MYB mRNA = experiment: Gene panel canonical junction qPCR assay, MYB CJ mRNA decrease; type: cell-based, human; details: Homo sapiens, canonical junction qPCR, read-out: MYB IC50 (decrease in CJ mRNA levels)
In short: as §2

K562 cells = experiment: Cell Titer Glo 2.0 cell viability assay in K562 cells; details: 72 hours
Protocol: Compounds described herein were screened for toxicity in K562 (human chronic myelogenous leukemia) and SH-SY5Y (human neuroblastoma) cells using a Cell Titer Glo 2.0 assay.
Cells were plated at 500 cells/well (K562 cells) in 45 μL of IMDM supplemented with 10% FBS in a 384-well opaque plate. Wells containing only medium were used as a blank control. Test compounds (e.g., compounds of Formula (I), (II), or (III)) were first serially diluted in DMSO then diluted 1:100 with IMDM+10% FBS. The final concentration of DMSO was 0.1% in each well. The cells were incubated for 72 hours at 37° C. and 5% CO2 before assaying with Cell Titer Glo 2.0 reagent.

Row | Structure (SMILES) | IC50 (HiBiT-tagged HTT protein) [µM] | IC50 (HTT mRNA) [µM] | IC50 (HiBiT-tagged MYB protein) [µM] | IC50 (SMN2 mRNA) [µM] | IC50 (Target C mRNA) [µM] | IC50 (MYB mRNA) [µM] | Viability (K562 cells)
1 | C[C@@H]1CN(c2ccc(C(=O)Nc3cc(F)c4nc(Cl)cn4c3)c3nccnc23)C[C@H](C)N1 [Compound 306] | 1 to 10 | > 10 | 0.1 to 1 | < 0.1 | > 10 | 0.1 to 1 | B (B represents 100-1000 nM)
2 | CNc1nc(NC(=O)c2ccc(N3C[C@@H](C)N[C@@H](C)C3)c3nccnc23)cn2cc(C)nc12 [Compound 308] | > 10 | > 10 | 1 to 10 | 0.1 to 1 | > 10 | 1 to 10 | C (C represents 1000-9999 nM)
3 | Cc1c(O)c(NC(=O)c2ccc(N3C[C@@H](C)N[C@@H](C)C3)c3nccnc23)cc2cn(C)nc12 [Compound 310] | > 10 | > 10 | 1 to 10 | < 0.1 | > 10 | 0.1 to 1 | C (C represents 1000-9999 nM)
4 | Cc1cn2cc(NC(=O)c3ccc(N4CC[C@@H](N)C4)c4nccnc34)cc(F)c2n1 [Compound 315] | 1 to 10 | > 10 | 0.1 to 1 | < 0.1 | > 10 | 0.1 to 1 | B (B represents 100-1000 nM)
5 | Cc1cn2cc(NC(=O)c3ccc(NC4CCNC4)c4nccnc34)cc(F)c2n1 (stereo not shown) [Compound 316] | 1 to 10 | > 10 | 0.1 to 1 | < 0.1 | > 10 | 0.1 to 1 | B (B represents 100-1000 nM)
6 | Cc1cn2cc(NC(=O)c3ccc(N4CCC5(CCN5)C4)c4nccnc34)cc(F)c2n1 (stereo not shown) [Compound 339] | 1 to 10 | 1 to 10 | 0.1 to 1 | < 0.1 | 1 to 10 | 0.1 to 1 | B (B represents 100-1000 nM)
7 | Cc1cn2cc(NC(=O)c3ccc(N4C[C@@H](C)N[C@@H](C)C4)c4cccnc34)cc(F)c2n1 [Compound 340] | 1 to 10 | 1 to 10 | 0.1 to 1 | < 0.1 | 1 to 10 | 0.1 to 1 | B (B represents 100-1000 nM)
8 | Cc1cn2cc(NC(=O)c3ccc(N4CCNC5(CC5)C4)c4cccnc34)cc(F)c2n1 [Compound 341] | 1 to 10 | 1 to 10 | 0.1 to 1 | < 0.1 | 1 to 10 | 0.1 to 1 | B (B represents 100-1000 nM)
9 | COc1nc2c(F)cc(NC(=O)c3ccc(N4C[C@@H](C)N[C@@H](C)C4)c4nccnc34)cc2o1 [Compound 342] | > 10 | > 10 | > 10 | 0.1 to 1 | > 10 | > 10 | C (C represents 1000-9999 nM)
10 | C[C@@H]1CN(c2ccc(C(=O)Nc3cc(F)c4cnccc4c3)c3nccnc23)C[C@H](C)N1 [Compound 343] | 1 to 10 | 1 to 10 | 1 to 10 | 0.1 to 1 | 1 to 10 | 1 to 10 | C (C represents 1000-9999 nM)
11 | C[C@@H]1CN(c2ccc(C(=O)Nc3cc(F)c4ncccc4c3)c3nccnc23)C[C@H](C)N1 [Compound 344] | > 10 | > 10 | 1 to 10 | 0.1 to 1 | > 10 | 1 to 10 | C (C represents 1000-9999 nM)
12 | Cc1cn2cc(NC(=O)c3ccc(N4CCNCC4)c4nncnc34)cc(F)c2n1 [Compound 345] | 1 to 10 | 1 to 10 | 0.1 to 1 | < 0.1 | 1 to 10 | 0.1 to 1 | B (B represents 100-1000 nM)
13 | Cc1cn2cc(NC(=O)c3ccc(N4C[C@@H](C)N[C@@H](C)C4)c4ncc(OC5CC5)nc34)cc(F)c2n1 [Compound 351] | 1 to 10 | 1 to 10 | 0.1 to 1 | < 0.1 | 1 to 10 | 0.1 to 1 | B (B represents 100-1000 nM)
14 | COc1nc(NC(=O)c2ccc(N3C[C@@H](C)N[C@@H](C)C3)c3nccnc23)cc2cn(C)nc12 [Compound 352] | 1 to 10 | 1 to 10 | 0.1 to 1 | < 0.1 | 1 to 10 | 0.1 to 1 | B (B represents 100-1000 nM)
15 | Cc1ccc2cc(NC(=O)c3ccc(N4C[C@@H](C)N[C@@H](C)C4)c4nccnc34)cc(F)c2n1 [Compound 353] | > 10 | > 10 | > 10 | 0.1 to 1 | > 10 | > 10 | C (C represents 1000-9999 nM)
16 | Cc1cn2nc(NC(=O)c3ccc(N4C[C@@H](C)N[C@@H](C)C4)c4nccnc34)cc2c(C)n1 [Compound 354] | 0.1 to 1 | 0.1 to 1 | 0.1 to 1 | 0.1 to 1 | 0.1 to 1 | 0.1 to 1 | B (B represents 100-1000 nM)
17 | Cc1cn2cc(NC(=O)c3ccc(N4CCC(N)(CF)CC4)c4nccnc34)cc(F)c2n1 [Compound 356] | 1 to 10 | 1 to 10 | 1 to 10 | 0.1 to 1 | > 10 | 1 to 10 | C (C represents 1000-9999 nM)
18 | COc1cn2cc(NC(=O)c3ccc(N4C[C@@H](C)N[C@@H](C)C4)c4nccnc34)cc(F)c2n1 [Compound 357] | > 10 | > 10 | 1 to 10 | 0.1 to 1 | > 10 | > 10 | C (C represents 1000-9999 nM)
19 | Cc1cn2cc(NC(=O)c3ccc(N4C[C@@H](C)N[C@@H](C)C4)c4ncccc34)cc(F)c2n1 [Compound 358] | > 10 | > 10 | > 10 | > 10 | > 10 | > 10 | D (D represents greater than 10 μM in K562 cells)
20 | Cc1cn2cc(NC(=O)c3ccc(N4C[C@@H](C)N[C@@H](C)C4)c4nccnc34)nc2c(C)n1 [Compound 359] | > 10 | > 10 | 0.1 to 1 | < 0.1 | > 10 | 0.1 to 1 | B (B represents 100-1000 nM)
21 | C[C@@H]1CN(c2ccc(C(=O)Nc3cc(F)c4nc(O)cn4c3)c3nccnc23)C[C@H](C)N1 [Compound 360] | > 10 | > 10 | > 10 | 1 to 10 | > 10 | > 10 | D (D represents greater than 10 μM in K562 cells)
22 | Cc1cn2cc(NC(=O)c3ccc(N4CCN[C@H](CO)C4)c4nccnc34)cc(F)c2n1 [Compound 362] | 1 to 10 | 1 to 10 | 0.1 to 1 | < 0.1 | 1 to 10 | 0.1 to 1 | B (B represents 100-1000 nM)
